For orientation: pIC50 means the IC50 on a negative log10 scale, so that one unit is a factor of ten.

The text below walks through data of ChEMBL document CHEMBL4418308, “cGAS ANTAGONIST COMPOUNDS” (2017).

The target of assay [1] is T1, Cyclic GMP-AMP synthase (Homo sapiens, UniProt Q8N884). In words: Inhibition of recombinant His6-SUMO tagged human CGAS expressed in Escherichia coli BL21/pLys cells incubated for 20 mins by Kinase Glo chemiluminescence assay. (In general: Kinase-Glo reads ATP consumption through a luciferase reaction.)
Assay [2] concerns the target T1, Cyclic GMP-AMP synthase. Briefly: Inhibition of CGAS in human THP1 cells transfected with interferon stimulatory DNA and measured after 16 hrs by Gaussia luciferase reporter gene assay. Format: cell-based. In general terms: In a reporter assay the amount or activity of a reporter protein is the signal.
Assay [3] addresses T1, Cyclic GMP-AMP synthase. Briefly: Inhibition of CGAS in human THP1 cells transfected with mock Sendai virus and measured after 16 hrs by Gaussia luciferase reporter gene assay. Format: cell-based.

pIC50: −log10 of the molar value.

T1 sequence (Q8N884 whole entry): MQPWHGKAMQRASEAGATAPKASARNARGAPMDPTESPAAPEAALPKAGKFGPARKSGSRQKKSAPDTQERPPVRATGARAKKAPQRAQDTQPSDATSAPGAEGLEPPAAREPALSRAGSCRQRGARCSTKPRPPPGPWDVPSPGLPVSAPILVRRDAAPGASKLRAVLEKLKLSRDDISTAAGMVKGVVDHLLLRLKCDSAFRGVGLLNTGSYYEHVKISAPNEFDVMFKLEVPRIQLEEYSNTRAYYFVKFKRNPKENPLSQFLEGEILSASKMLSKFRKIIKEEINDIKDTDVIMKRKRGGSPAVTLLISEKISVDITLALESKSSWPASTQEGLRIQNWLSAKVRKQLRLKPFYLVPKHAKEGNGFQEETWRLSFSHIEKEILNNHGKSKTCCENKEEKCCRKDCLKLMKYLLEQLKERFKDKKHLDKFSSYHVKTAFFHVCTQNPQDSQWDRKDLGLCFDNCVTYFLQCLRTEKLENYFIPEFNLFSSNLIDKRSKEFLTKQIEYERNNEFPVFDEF

In the case of `CC1C(=O)S/C(=C\c2cc(OC(C)c3cnc(Cl)nc3)c(O)c(F)c2Br)C1=O` (stereo not given), the negative-log IC50 (pIC50) on Cyclic GMP-AMP synthase [1] is not below 6.30; against Cyclic GMP-AMP synthase [2] it was 5.00 to 5.60; against Cyclic GMP-AMP synthase [3] it was 5.00 to 5.60.
With `COc1cc(/C=C2\SC(=O)N(C)C2=O)c(I)cc1O`, the negative logarithm of the IC50 (pIC50) was not below 6.30 at Cyclic GMP-AMP synthase [1], 5.00 to 5.60 at Cyclic GMP-AMP synthase [2] and not above 5.00 against Cyclic GMP-AMP synthase [3].
Take `CCC(Oc1cc(/C=C2\SC(=O)N(C)C2=O)c(Br)c(F)c1O)c1cnc(N)nc1` (stereo not given): the pIC50 is not below 6.30 on Cyclic GMP-AMP synthase [1], 5.00 to 5.60 against Cyclic GMP-AMP synthase [2] and not above 5.00 on Cyclic GMP-AMP synthase [3].
The corresponding values for `CC1C(=O)S/C(=C\c2cc(OC(C)c3cnc(N)nc3C(F)(F)F)c(O)c(F)c2Br)C1=O` (stereo not given) are not below 6.30, 5.00 to 5.60 and not above 5.00.
Regarding `CNc1ncc(COc2cc(/C=C3\Sc4ncccc4C3=O)c(Br)cc2O)cn1`, the pIC50 at Cyclic GMP-AMP synthase [1] is not below 6.30; at Cyclic GMP-AMP synthase [2], 5.00 to 5.60; on Cyclic GMP-AMP synthase [3], not above 5.00.
Taken in the same sequence, the figures for `CC(Oc1cc(/C=C2\Sc3ncccc3C2=O)c(Br)cc1O)c1cnc(N)nc1` (stereo not given) were not below 6.30, not below 5.60 and not above 5.00.
The corresponding values for `O=C1/C(=C/c2cc(OCc3cnc(NCc4ccncc4)nc3)c(O)cc2Br)Sc2ncccc21` are not below 6.30, not below 5.60 and not above 5.00.
The corresponding values for `CN1C(=O)S/C(=C\c2cc(OCc3cnc(NN)nc3)c(O)cc2Br)C1=O` are not below 6.30, not below 5.60 and not above 5.00.
`Nc1ncncc1COc1cc(/C=C2\Sc3ncccc3C2=O)c(Br)cc1O`: the pIC50 at Cyclic GMP-AMP synthase [1] was not below 6.30; against Cyclic GMP-AMP synthase [2], 5.00 to 5.60; on Cyclic GMP-AMP synthase [3] it was not above 5.00.
The corresponding values for `Cc1nc(N)ncc1COc1cc(/C=C2\SC(=O)N(C)C2=O)c(Br)cc1O` are not below 6.30, not below 5.60 and not above 5.00.
